The subject of one data set is M. tuberculosis H37Rv. The data set can be described thus: MIC against replicating M. tuberculosis H37Rv, microplate Alamar blue assay (MABA). The class given is cell-based. For orientation: Alamar Blue is a resazurin reagent that responds to reducing activity.
The subject of another data set is Vero cells. The data set is described as follows: Cytotoxicity assay in Vero cells (MTT). The conditions noted are these: for IC50: Chlorocebus sabaeus, Vero cells, 48 h, read-out: IC50 (Vero). It counts as cell-based.
The mark [1] stands for this setting: Mycobacterium tuberculosis, H37RV, against M. tuberculosis H37Rv, Tables 1-3, read-out: MIC.
Where [2] appears, read: Mycobacterium tuberculosis, H37RV, supplementary CSV, same values as Tables 1-3, read-out: Minimal inhibit concentration.
[3] abbreviates: against M. tuberculosis H37Rv, Tables 1-3.

≈ marks a conversion by molar mass, not a printed value. Where two headings read alike, the source gives them in different places.

`CCCNC(=O)c1ccc(C(=O)Nc2sccc2C(=O)NC(=O)OCC)cc1` [Compound 23a, Ethyl (2-(4-(Propylcarbamoyl)benzamido)thiophene-3-carbonyl)carbamate] displayed a melting point of 219 to 220 °C. In the data set on M. tuberculosis H37Rv (setting [1]), the MIC is 0.2 µg/mL (≈ 0.496 µM). Moreover, in the data set on M. tuberculosis H37Rv (setting [2]), the MIC worked out at 0.2 µg/mL (≈ 0.496 µM). The MIC against M. tuberculosis H37Rv (setting [3]) was 0.20 µg/mL (≈ 0.496 µM). Moreover, in the data set on Vero cells, the SI is reported as >320 and the IC50 was > 64 µg/mL.

Take `CCOC(=O)NC(=O)c1ccsc1NC(=O)c1ccc(C(=O)N(C)CC)cc1` [Compound 23b, Ethyl (2-(4-(Ethyl(methyl)carbamoyl)benzamido)thiophene-3-carbonyl)carbamate]: the melting point was in the range of 161 to 162 °C. For the same compound, the MIC in the data set on M. tuberculosis H37Rv (setting [1]) is 0.95 µg/mL (≈ 2.35 µM). In addition, the MIC with M. tuberculosis H37Rv (setting [2]) was determined as 0.95 µg/mL (≈ 2.35 µM). In addition, in the data set on Vero cells, the SI is >67 and the IC50 was > 64 µg/mL.

In the case of `CCOC(=O)NC(=O)c1ccsc1NC(=O)c1ccc(C(=O)N(CC)CC)cc1` [Compound 23c, Ethyl (2-(4-(Diethylcarbamoyl)benzamido)thiophene-3-carbonyl)carbamate], the melting point was 178 to 179 °C. Also, the MIC in the data set with M. tuberculosis H37Rv (setting [1]) was determined as 0.28 µg/mL (≈ 0.671 µM). The MIC in the data set on M. tuberculosis H37Rv (setting [2]) amounted to 0.28 µg/mL (≈ 0.671 µM). In the data set on Vero cells, the SI was >229 and the IC50 is > 64 µg/mL.

Turning to `CCOC(=O)NC(=O)c1ccsc1NC(=O)c1ccc(C(=O)NC23CC4CC(CC(C4)C2)C3)cc1` [Compound 23d, Ethyl (2-(4-(((3S,5S,7S)-Adamantan-1-yl)carbamoyl)benzamido)thiophene-3-carbonyl)carbamate], the melting point is 157 to 158 °C. For the same compound, the MIC in the data set with M. tuberculosis H37Rv (setting [1]) was 0.12 µg/mL (≈ 0.242 µM). Moreover, in the data set with M. tuberculosis H37Rv (setting [2]), the MIC was determined as 0.12 µg/mL (≈ 0.242 µM). In the data set with Vero cells, the SI was found to be 16 and the IC50 was determined as 1.96 µg/mL (≈ 3.95 µM).

`CCOC(=O)NC(=O)c1ccsc1NC(=O)c1ccc(C(=O)N2CCCC2)cc1` [Compound 23i, Ethyl (2-(4-(Pyrrolidine-1-carbonyl)benzamido)thiophene-3-carbonyl)carbamate]: the MIC with M. tuberculosis H37Rv (setting [1]) and in the data set with M. tuberculosis H37Rv (setting [2]) was 0.2 µg/mL (≈ 0.481 µM) throughout. Also, in the data set on Vero cells, the IC50 was > 64 µg/mL.

Turning to `CCOC(=O)NC(=O)c1ccsc1NC(=O)c1ccc(C(=O)N2CCCCCC2)cc1` [Compound 23k, Ethyl (2-(4-(Azepane-1-carbonyl)benzamido)thiophene-3-carbonyl)carbamate], the MIC in the data set with M. tuberculosis H37Rv (setting [1]) and in the data set on M. tuberculosis H37Rv (setting [2]) was 0.22 µg/mL (≈ 0.496 µM) each time. Moreover, the IC50 in the data set with Vero cells was determined as 48.4 µg/mL (≈ 109 µM).

With `CCOC(=O)NC(=O)c1ccsc1NC(=O)c1ccc(C(=O)N2CCC(C)CC2)cc1` [Compound 23l, Ethyl (2-(4-(4-Methylpiperidine-1-carbonyl)benzamido)thiophene-3-carbonyl)carbamate], the MIC in the data set with M. tuberculosis H37Rv (setting [1]) and with M. tuberculosis H37Rv (setting [2]) was 0.03 µg/mL (≈ 0.0676 µM) each time. Moreover, in the data set on Vero cells, the IC50 was > 64 µg/mL.

Take `CCOC(=O)NC(=O)c1ccsc1NC(=O)c1ccc(C(=O)N2CCC(F)(F)CC2)cc1` [Compound 23n, Ethyl (2-(4-(4,4-Difluoropiperidine-1-carbonyl)benzamido)thiophene-3-carbonyl)carbamate]: the MIC in the data set with M. tuberculosis H37Rv (setting [1]) and with M. tuberculosis H37Rv (setting [2]) was 0.25 µg/mL (≈ 0.537 µM) each time. Moreover, the IC50 in the data set with Vero cells is > 64 µg/mL.

In turn, `CCOC(=O)NC(=O)c1ccsc1NC(=O)c1ccc(C(=O)N2CCOCC2)cc1` [Compound 23o, Ethyl (2-(4-(Morpholine-4-carbonyl)benzamido)thiophene-3-carbonyl)carbamate] had a melting point of 159 to 160 °C. Besides, the MIC in the data set on M. tuberculosis H37Rv (setting [1]) is 1.66 µg/mL (≈ 3.85 µM). For the same compound, in the data set with M. tuberculosis H37Rv (setting [2]), the MIC stood at 1.66 µg/mL (≈ 3.85 µM).

Consider `CCOC(=O)NC(=O)c1ccsc1NC(=O)c1cccc(C(=O)N2CCCCC2)c1` [Compound 24a, Ethyl (2-(3-(Piperidine-1-carbonyl)benzamido)thiophene-3-carbonyl)carbamate], for which the MIC in the data set with M. tuberculosis H37Rv (setting [1]) and with M. tuberculosis H37Rv (setting [2]) was 3.7 µg/mL (≈ 8.61 µM) throughout.

Turning to `CCOC(=O)NC(=O)c1ccsc1NC(=O)c1ccc(C(=O)N2CCCCC2)cc1F` [Compound 24b, Ethyl (2-(2-Fluoro-4-(piperidine-1-carbonyl)benzamido)thiophene-3-carbonyl)carbamate], the MIC in the data set with M. tuberculosis H37Rv (setting [1]) and in the data set on M. tuberculosis H37Rv (setting [2]) was 0.12 µg/mL (≈ 0.268 µM) each time. The IC50 with Vero cells was > 64 µg/mL.

For `CCOC(=O)NC(=O)c1ccsc1NC(=O)c1ccc(C(=O)N2CCCCC2)c(C)c1` [Compound 24g, Ethyl (2-(3-Methyl-4-(piperidine-1-carbonyl)benzamido)thiophene-3-carbonyl)carbamate], the MIC in the data set with M. tuberculosis H37Rv (Mycobacterium tuberculosis, H37RV, against M. tuberculosis H37Rv, Tables 1-3) is 0.12 µg/mL (≈ 0.271 µM); in the data set with M. tuberculosis H37Rv (setting [2]) it was 0.12 µg/mL (≈ 0.271 µM). In the data set on Vero cells, the IC50 was found to be 53.1 µg/mL (≈ 120 µM).

In turn, `CCOC(=O)NC(=O)c1ccsc1NC(=O)c1ccc2cc(C(=O)N3CCCCC3)ccc2c1` [Compound 24h, Ethyl (2-(6-(Piperidine-1-carbonyl)-2-naphthamido)thiophene-3-carbonyl)carbamate] had a melting point of 177 to 178 °C. Also, in the data set on M. tuberculosis H37Rv (setting [1]), the MIC stood at 3.13 µg/mL (≈ 6.53 µM). Moreover, in the data set with M. tuberculosis H37Rv (setting [2]), the MIC stood at 3.13 µg/mL (≈ 6.53 µM).

Consider `CCOC(=O)NC(=O)c1ccsc1NC(=O)c1ccc(-c2ccc(C(=O)N3CCCCC3)cc2)cc1` [Compound 24i, Ethyl (2-(4′-(Piperidine-1-carbonyl)-[1,1′-biphenyl]-4-carboxamido)thiophene-3-carbonyl)carbamate], for which the MIC in the data set with M. tuberculosis H37Rv (setting [1]) and in the data set on M. tuberculosis H37Rv (setting [2]) was 7.76 µg/mL (≈ 15.3 µM) throughout.

`CCOC(=O)NC(=O)c1ccsc1NC(=O)c1cc(C(=O)N2CCCCC2)c[nH]1` [Compound 24l, Ethyl (2-(4-(Piperidine-1-carbonyl)-1H-pyrrole-2-carboxamido)thiophene-3-carbonyl)carbamate]: the melting point lay within 183 to 184 °C. In addition, the MIC with M. tuberculosis H37Rv (setting [1]) worked out at 1.77 µg/mL (≈ 4.23 µM). In the data set on M. tuberculosis H37Rv (setting [2]), the MIC was determined as 1.77 µg/mL (≈ 4.23 µM).

Take `CCNC(=O)NC(=O)c1ccsc1NC(=O)c1ccc(C(=O)N2CCCCC2)cc1` [Compound 25c, N-(Ethylcarbamoyl)-2-(4-(piperidine-1-carbonyl)benzamido)thiophene-3-carboxamide]: the melting point fell in the range of 223 to 224 °C. Also, the MIC in the data set with M. tuberculosis H37Rv (setting [1]) is > 32 µg/mL. Also, the MIC in the data set with M. tuberculosis H37Rv (setting [2]) is > 32 µg/mL.

As for `NC(=O)c1ccsc1NC(=O)c1ccc(C(=O)N2CCCCC2)cc1` [Compound 25d, 2-(4-(Piperidine-1-carbonyl)benzamido)thiophene-3-carboxamide], the MIC in the data set on M. tuberculosis H37Rv (setting [1]) and in the data set on M. tuberculosis H37Rv (setting [2]) was > 32 µg/mL throughout.

On to `COC(=O)C1CN(C(=O)c2ccsc2NC(=O)c2ccc(C(=O)N3CCCCC3)cc2)C1` [Compound 25e, Methyl 1-(2-(4-(Piperidine-1-carbonyl)benzamido)thiophene-3-carbonyl)azetidine-3-carboxylate], for which the melting point fell in the range of 154 to 155 °C. Also, the MIC in the data set with M. tuberculosis H37Rv (setting [1]) was > 32 µg/mL. In the data set with M. tuberculosis H37Rv (setting [2]), the MIC was > 32 µg/mL.

Turning to `COC(=O)C1CCN(C(=O)c2ccsc2NC(=O)c2ccc(C(=O)N3CCCCC3)cc2)CC1` [Compound 25f, Methyl 1-(2-(4-(Piperidine-1-carbonyl)benzamido)thiophene-3-carbonyl)piperidine-4-carboxylate], the melting point lay in the range of 169 to 170 °C. Also, the MIC with M. tuberculosis H37Rv (setting [1]) is 15.5 µg/mL (≈ 32.1 µM). The MIC in the data set on M. tuberculosis H37Rv (setting [2]) came out at 15.5 µg/mL (≈ 32.1 µM).

`COC(=O)N1CCN(C(=O)c2ccsc2NC(=O)c2ccc(C(=O)N3CCCCC3)cc2)CC1` [Compound 25g, Methyl 4-(2-(4-(Piperidine-1-carbonyl)benzamido)thiophene-3-carbonyl)piperazine-1-carboxylate]: the melting point lay in the range of 113 to 114 °C. Further, in the data set on M. tuberculosis H37Rv (setting [1]), the MIC is > 32 µg/mL. In addition, the MIC in the data set on M. tuberculosis H37Rv (setting [2]) was > 32 µg/mL.

`CCOC(=O)N1CCN(C(=O)c2ccsc2NC(=O)c2ccc(C(=O)N3CCCCC3)cc2)CC1` [Compound 25h, Ethyl 4-(2-(4-(Piperidine-1-carbonyl)benzamido)thiophene-3-carbonyl)piperazine-1-carboxylate] had a melting point of 134 to 135 °C. In addition, the MIC in the data set with M. tuberculosis H37Rv (setting [1]) was > 32 µg/mL. Moreover, the MIC in the data set with M. tuberculosis H37Rv (setting [2]) was > 32 µg/mL.

In turn, `Cc1cnc(NC(=O)c2ccsc2NC(=O)c2ccc(C(=O)N3CCCCC3)cc2)s1` [Compound 25i, N-(5-Methylthiazol-2-yl)-2-(4-(piperidine-1-carbonyl)benzamido)thiophene-3-carboxamide] registered a melting point of 236 to 238 °C. Besides, the MIC with M. tuberculosis H37Rv (setting [1]) was > 32 µg/mL. Moreover, in the data set with M. tuberculosis H37Rv (setting [2]), the MIC is > 32 µg/mL.

Turning to `Cc1cnc(NC(=O)c2ccsc2NC(=O)c2ccc(C(=O)N3CCCCC3)cc2)cn1` [Compound 25m, N-(5-Methylpyrazin-2-yl)-2-(4-(piperidine-1-carbonyl)benzamido)thiophene-3-carboxamide], the melting point lay in the range of 177 to 179 °C. Further, the MIC with M. tuberculosis H37Rv (setting [1]) is > 32 µg/mL. Also, the MIC in the data set with M. tuberculosis H37Rv (setting [2]) was > 32 µg/mL.

As for `Cc1cccc(NC(=O)c2ccsc2NC(=O)c2ccc(C(=O)N3CCCCC3)cc2)n1` [Compound 25n, N-(6-Methylpyridin-2-yl)-2-(4-(piperidine-1-carbonyl)benzamido)thiophene-3-carboxamide], the melting point was in the range of 171 to 174 °C. Further, the MIC in the data set on M. tuberculosis H37Rv (setting [1]) is > 32 µg/mL. The MIC in the data set with M. tuberculosis H37Rv (setting [2]) was > 32 µg/mL.

Regarding `Cc1cc(C)nc(NC(=O)c2ccsc2NC(=O)c2ccc(C(=O)N3CCCCC3)cc2)n1` [Compound 25p, N-(4,6-Dimethylpyrimidin-2-yl)-2-(4-(piperidine-1-carbonyl)benzamido)thiophene-3-carboxamide], the melting point was 189 to 190 °C. In the data set with M. tuberculosis H37Rv (setting [1]), the MIC was > 32 µg/mL. Also, the MIC in the data set with M. tuberculosis H37Rv (setting [2]) was > 32 µg/mL.

Turning to `Cc1ccc2sc(NC(=O)c3ccsc3NC(=O)c3ccc(C(=O)N4CCCCC4)cc3)nc2c1` [Compound 25q, N-(5-Methylbenzo[d]thiazol-2-yl)-2-(4-(piperidine-1-carbonyl)benzamido)thiophene-3-carboxamide], the melting point is > 250 °C. For the same compound, in the data set on M. tuberculosis H37Rv (setting [1]), the MIC was > 32 µg/mL. Besides, the MIC in the data set on M. tuberculosis H37Rv (setting [2]) was > 32 µg/mL.

As for `COc1nc2ccc(Br)cc2cc1[C@@H](c1ccccc1)[C@@](O)(CCN(C)C)c1cccc2ccccc12` [bedaquiline, reference compound], the MIC with M. tuberculosis H37Rv (Mycobacterium tuberculosis, H37RV, Table 4, read-out: MIC H37Rv) stood at 0.036 µg/mL (≈ 0.0648 µM).

For “N-(4-Methylpyridin-2-yl)-2-(4-(piperidine-1-carbonyl)benzamido)thiophene-3-carboxamide [Compound 25o]”, in the data set on M. tuberculosis H37Rv (setting [3]), the MIC is >32 µg/mL. Besides, the Minimal inhibit concentration with M. tuberculosis H37Rv (supplementary CSV, same values as Tables 1-3) is >32 µg/mL.

As usually defined, the IC50 is the concentration that gives 50% inhibition. For orientation: melting point means the temperature, or range, at which the solid turns liquid.

The values are drawn from PMC8154581, “Discovery of Novel Thiophene-arylamide Derivatives as DprE1 Inhibitors with Potent Antimycobacterial Activities” (Journal of Medicinal Chemistry, 2021).
